Article doi:10.1101/2024.09.17.613365, “Type-II kinase inhibitors that target Parkinson’s Disease-associated LRRK2” (bioRxiv, 2025)
Values belong to the compound of their own block, whether it stands above or below them.

Key:
LRRK2^KW [1] = target: T1, LRRK2^KW (Homo sapiens, UniProt Q5S007); set-up: Differential scanning fluorometry, thermal stabilization of LRRK2 KW by compound; settings: binder
T1 construct: Kinase and WD40 domain construct (KW)
Description: Next, we evaluated the potency and selectivity of these new compounds. We performed on-target screening by measuring the thermostability increase of LRRK2^KW in the presence of the new compounds using DSF (Supporting Information Table S2). We also determined the in vitro IC50 (median inhibitory concentration) values for each of the new compounds by purifying LRRK2^RCKW and measuring its kinase activity in the presence of our new inhibitors using the PhosphoSense® activity assay from AssayQuant (Supporting Information Table S2). Finally, we estimated the kinome selectivity of each compound by measuring the thermostability increase of approximately 100 representative kinases in the presence of the compounds via DSF (Supporting Information Table S2). […] Additionally, we screened a library of published type-II inhibitors to identify those that bind to LRRK2^KW (a Kinase and WD40 domain construct of LRRK2) with high affinity.

[2] = target: T2, leucine-rich repeat kinase 2 (LRRK2) (Homo sapiens, UniProt Q5S007); assay: biochemical; set-up: PhosphoSense (AssayQuant) kinase activity assay with purified LRRK2 RCKW
T2 construct: LRRK2^RCKW (ROC, COR, Kinase, WD40)
T2 sequence (Q5S007 1327-2527 limits assumed): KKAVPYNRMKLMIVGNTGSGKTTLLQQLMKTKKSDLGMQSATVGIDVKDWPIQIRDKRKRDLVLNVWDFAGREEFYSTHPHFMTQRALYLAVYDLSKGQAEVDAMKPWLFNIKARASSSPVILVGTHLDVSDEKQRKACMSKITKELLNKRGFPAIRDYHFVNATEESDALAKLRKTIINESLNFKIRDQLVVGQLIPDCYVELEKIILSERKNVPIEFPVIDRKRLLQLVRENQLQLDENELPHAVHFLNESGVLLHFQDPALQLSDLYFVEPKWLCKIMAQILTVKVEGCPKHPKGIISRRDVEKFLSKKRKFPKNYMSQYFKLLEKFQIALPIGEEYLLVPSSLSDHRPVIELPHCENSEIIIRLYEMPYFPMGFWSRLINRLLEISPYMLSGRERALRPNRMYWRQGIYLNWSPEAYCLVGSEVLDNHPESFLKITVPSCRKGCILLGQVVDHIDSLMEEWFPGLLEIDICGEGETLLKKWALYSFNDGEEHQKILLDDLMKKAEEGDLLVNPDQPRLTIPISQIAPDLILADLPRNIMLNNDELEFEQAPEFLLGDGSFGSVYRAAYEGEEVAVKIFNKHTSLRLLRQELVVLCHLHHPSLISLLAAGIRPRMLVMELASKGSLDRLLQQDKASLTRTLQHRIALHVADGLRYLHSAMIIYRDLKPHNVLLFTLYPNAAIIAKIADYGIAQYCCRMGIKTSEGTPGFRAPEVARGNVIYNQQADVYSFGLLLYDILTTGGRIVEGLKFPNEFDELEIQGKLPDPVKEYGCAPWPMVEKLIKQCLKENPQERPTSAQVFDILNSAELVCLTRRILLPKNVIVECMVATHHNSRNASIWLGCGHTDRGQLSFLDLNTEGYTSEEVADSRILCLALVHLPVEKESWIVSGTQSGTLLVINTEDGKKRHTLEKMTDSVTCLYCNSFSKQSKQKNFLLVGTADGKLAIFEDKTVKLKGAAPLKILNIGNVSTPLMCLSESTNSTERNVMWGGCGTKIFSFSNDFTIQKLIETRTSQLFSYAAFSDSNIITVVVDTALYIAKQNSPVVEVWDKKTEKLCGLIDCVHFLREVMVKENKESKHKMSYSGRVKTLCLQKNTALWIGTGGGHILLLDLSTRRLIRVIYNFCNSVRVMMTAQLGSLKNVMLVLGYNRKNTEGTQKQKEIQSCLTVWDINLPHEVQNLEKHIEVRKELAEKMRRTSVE
Description: (§1) Next, we evaluated the potency and selectivity of these new compounds. We performed on-target screening by measuring the thermostability increase of LRRK2^KW in the presence of the new compounds using DSF (Supporting Information Table S2). We also determined the in vitro IC50 (median inhibitory concentration) values for each of the new compounds by purifying LRRK2^RCKW and measuring its kinase activity in the presence of our new inhibitors using the PhosphoSense® activity assay from AssayQuant (Supporting Information Table S2). Finally, we estimated the kinome selectivity of each compound by measuring the thermostability increase of approximately 100 representative kinases in the presence of the compounds via DSF (Supporting Information Table S2).

[3] = target: T2, leucine-rich repeat kinase 2 (LRRK2); assay: PhosphoSense kinase activity assay; DSF ΔTm […] K on LRRK2^KW; type: biochemical
[4] = target: T2, leucine-rich repeat kinase 2 (LRRK2); assay: as above; type: biochemical; remark: listed apart in the source
LRRK2^KW [5] = target: T1, LRRK2^KW; set-up: DSF thermal shift of purified LRRK2 KW construct with compound; settings: binder
Description: Additionally, we screened a library of published type-II inhibitors to identify those that bind to LRRK2^KW (a Kinase and WD40 domain construct of LRRK2) with high affinity. […] Next, we evaluated the potency and selectivity of these new compounds. We performed on-target screening by measuring the thermostability increase of LRRK2^KW in the presence of the new compounds using DSF (Supporting Information Table S2). We also determined the in vitro IC50 (median inhibitory concentration) values for each of the new compounds by purifying LRRK2^RCKW and measuring its kinase activity in the presence of our new inhibitors using the PhosphoSense® activity assay from AssayQuant (Supporting Information Table S2). Finally, we estimated the kinome selectivity of each compound by measuring the thermostability increase of approximately 100 representative kinases in the presence of the compounds via DSF (Supporting Information Table S2).

[6] = target: T2, leucine-rich repeat kinase 2 (LRRK2); assay: biochemical; set-up: PhosphoSense kinase activity assay, purified LRRK2 RCKW
Description: as §1

T1 sequence (Q5S007 whole entry, the tested form may be a part): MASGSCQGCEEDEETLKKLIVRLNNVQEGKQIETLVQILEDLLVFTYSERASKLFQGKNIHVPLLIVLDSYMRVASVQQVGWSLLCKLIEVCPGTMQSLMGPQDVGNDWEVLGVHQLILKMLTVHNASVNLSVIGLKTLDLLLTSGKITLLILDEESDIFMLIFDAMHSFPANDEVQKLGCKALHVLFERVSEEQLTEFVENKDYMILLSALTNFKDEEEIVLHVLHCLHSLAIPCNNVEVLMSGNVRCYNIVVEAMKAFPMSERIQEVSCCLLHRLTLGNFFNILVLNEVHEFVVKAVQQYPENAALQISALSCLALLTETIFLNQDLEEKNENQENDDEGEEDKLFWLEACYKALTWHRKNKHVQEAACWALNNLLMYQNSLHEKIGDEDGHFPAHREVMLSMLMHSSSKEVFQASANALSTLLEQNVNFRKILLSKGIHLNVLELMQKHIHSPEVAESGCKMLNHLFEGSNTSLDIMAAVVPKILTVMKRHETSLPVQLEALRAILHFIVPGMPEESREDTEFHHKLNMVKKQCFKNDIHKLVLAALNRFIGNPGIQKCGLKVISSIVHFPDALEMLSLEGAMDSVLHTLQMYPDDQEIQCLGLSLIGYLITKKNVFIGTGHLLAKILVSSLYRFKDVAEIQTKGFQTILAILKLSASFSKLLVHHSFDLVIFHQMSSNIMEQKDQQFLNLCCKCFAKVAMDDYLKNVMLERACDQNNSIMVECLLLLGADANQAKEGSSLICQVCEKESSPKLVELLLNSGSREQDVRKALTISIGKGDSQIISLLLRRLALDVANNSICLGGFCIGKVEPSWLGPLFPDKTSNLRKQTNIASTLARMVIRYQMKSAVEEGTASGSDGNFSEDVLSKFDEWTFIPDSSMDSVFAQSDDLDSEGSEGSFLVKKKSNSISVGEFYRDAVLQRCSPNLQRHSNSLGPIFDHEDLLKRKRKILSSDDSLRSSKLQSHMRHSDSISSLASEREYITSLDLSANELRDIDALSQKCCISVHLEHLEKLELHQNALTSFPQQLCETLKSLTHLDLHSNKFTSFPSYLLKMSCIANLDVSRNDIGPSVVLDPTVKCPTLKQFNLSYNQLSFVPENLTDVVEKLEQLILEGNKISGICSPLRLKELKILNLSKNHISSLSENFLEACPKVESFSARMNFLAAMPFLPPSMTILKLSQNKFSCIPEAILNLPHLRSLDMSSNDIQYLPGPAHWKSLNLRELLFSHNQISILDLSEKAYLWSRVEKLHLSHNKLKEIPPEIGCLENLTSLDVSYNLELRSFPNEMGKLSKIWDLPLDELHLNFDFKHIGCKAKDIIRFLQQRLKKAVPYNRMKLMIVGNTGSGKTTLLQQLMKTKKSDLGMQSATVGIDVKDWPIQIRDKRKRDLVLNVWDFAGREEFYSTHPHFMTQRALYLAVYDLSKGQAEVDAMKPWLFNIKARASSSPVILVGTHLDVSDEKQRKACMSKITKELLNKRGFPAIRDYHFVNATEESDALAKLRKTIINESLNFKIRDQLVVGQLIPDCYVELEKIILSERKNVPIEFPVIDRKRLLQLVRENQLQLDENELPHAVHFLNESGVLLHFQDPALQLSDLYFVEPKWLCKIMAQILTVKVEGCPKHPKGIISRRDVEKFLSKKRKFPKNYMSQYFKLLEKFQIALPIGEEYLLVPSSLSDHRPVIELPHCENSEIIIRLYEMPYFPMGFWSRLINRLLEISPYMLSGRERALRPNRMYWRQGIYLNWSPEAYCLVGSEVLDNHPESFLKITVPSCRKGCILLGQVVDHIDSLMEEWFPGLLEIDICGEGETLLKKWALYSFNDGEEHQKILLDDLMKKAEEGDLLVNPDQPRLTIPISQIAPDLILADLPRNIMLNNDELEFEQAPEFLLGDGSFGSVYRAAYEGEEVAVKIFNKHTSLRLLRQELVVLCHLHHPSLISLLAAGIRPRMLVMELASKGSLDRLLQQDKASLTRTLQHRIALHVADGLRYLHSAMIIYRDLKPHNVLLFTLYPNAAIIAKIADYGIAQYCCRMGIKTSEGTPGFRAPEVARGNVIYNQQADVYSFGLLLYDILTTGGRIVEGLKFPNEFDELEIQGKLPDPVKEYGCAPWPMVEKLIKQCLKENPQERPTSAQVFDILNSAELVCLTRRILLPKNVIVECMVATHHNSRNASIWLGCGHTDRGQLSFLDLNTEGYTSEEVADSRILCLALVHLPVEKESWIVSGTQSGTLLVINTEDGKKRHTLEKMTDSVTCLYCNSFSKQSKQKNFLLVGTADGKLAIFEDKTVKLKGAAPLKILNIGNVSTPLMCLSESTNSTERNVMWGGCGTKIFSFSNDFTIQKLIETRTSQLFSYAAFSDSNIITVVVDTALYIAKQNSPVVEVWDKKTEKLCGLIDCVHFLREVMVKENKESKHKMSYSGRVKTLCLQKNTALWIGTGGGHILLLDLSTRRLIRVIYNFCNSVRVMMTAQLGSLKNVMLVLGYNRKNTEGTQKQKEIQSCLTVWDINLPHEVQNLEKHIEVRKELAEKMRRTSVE

Structure (SMILES): CN1CCc2cc(N(C(=O)C3(C(N)=O)CC3)c3cccc(-c4c[nH]c5ncnc(N6CCOCC6)c45)c3)ccc2C1 [compound 10, N-(2-methyl-1,2,3,4-tetrahydroisoquinolin-6-yl)-N-(3-(4-morpholino-7H-pyrrolo[2,3-d]pyrimidin-5-yl)phenyl)cyclopropane-1,1-dicarboxamide]
ΔTm [K] (LRRK2^KW [1]): 4.3 K
IC50 [2]: 3180 ± 134 nM

Structure (SMILES): NC(=O)C1(C(=O)N(c2cccc(-c3c[nH]c4ncnc(N5CCOCC5)c34)c2)c2cccc3c2CCC3)CC1 [compound 11, N-(2,3-dihydro-1H-inden-4-yl)-N-(3-(4-morpholino-7H-pyrrolo[2,3-d]pyrimidin-5-yl)phenyl)cyclopropane-1,1-dicarboxamide]
ΔTm [K] (LRRK2^KW [1]): 9.2 K
IC50 [2]: 989 ± 32 nM

Structure (SMILES): Cc1cc(N(C(=O)C2(C(N)=O)CC2)c2cccc(-c3c[nH]c4ncnc(N5CCOCC5)c34)c2)ccc1F [compound 20, 20]
IC50 [3]: 110 ± 11 nM

Structure (SMILES): NC(=O)C1(C(=O)N(c2cccc(-c3c[nH]c4ncnc(N5CCOCC5)c34)c2)c2ccc(F)c(Br)c2F)CC1 [compound 26, RN222]
IC50 [4]: 134 ± 5 nM

Continued, values first:

∆Tm [K] (LRRK2^KW [5]): 10.0 K
IC50 ([6]; read-out: IC50): 897 ± 120 nM
Structure (SMILES): Cc1ccc(C(=O)Nc2ccc(CN3CCN(C)CC3)c(C(F)(F)F)c2)cc1C#Cc1ccc2cn[nH]c2c1 [compound 52, 3-((1H-indazol-6-yl)ethynyl)-4-methyl-N-(4-((4-methylpiperazin-1-yl)methyl)-3-(trifluoromethyl)phenyl)benzamide]

∆Tm [K] (LRRK2^KW [5]): 2.0 K
IC50 ([6]; read-out: IC50 [nM]): > 15000 nM
Structure (SMILES): CC(C)(C)c1cc(NC(=O)Nc2ccc3cn[nH]c3c2)n(-c2ccc3ncccc3c2)n1 [compound 53, 1-(3-(tert-butyl)-1-(quinolin-6-yl)-1H-pyrazol-5-yl)-3-(1H-indazol-6-yl)urea]

∆Tm [K] (LRRK2^KW [5]): 2.0 K
IC50 ([6]; read-out: IC50 [nM]): > 15000 nM
Structure (SMILES): Cc1ccc(-n2nc(C(C)(C)C)cc2NC(=O)Nc2ccc3cn[nH]c3c2)cc1 [compound 54, 1-(3-(tert-butyl)-1-(p-tolyl)-1H-pyrazol-5-yl)-3-(1H-indazol-6-yl)urea]
